Measured values reported in the SangsterLogP compilation.

Experiment: method code SF-AS, from Rouot, B.; Leclerc, G.; Wermuth, C.; Miesch, F.; Schwartz, J. (1977). Structure-activity relations and problems related to the mechanism of action of clonidine.Journal de Pharmacologie, 8(1)95-106.
`Cc1ccc(Cl)cc1NC1=NCCN1` showed a logP of 1.8.
With `COc1cc(OC)c(NC2=NCCN2)cc1Cl` the logP was 1.38.
For `Cc1cc(Cl)ccc1NC1=NCCN1`, the logP was 1.77.
`c1ccc(NC2=NCCN2)cc1` showed a logP of 1.01.
`FC(F)(F)c1ccccc1NC1=NCCN1` gave a logP of 1.42.
In the case of `Oc1cc(Cl)c(NC2=NCCN2)c(Cl)c1`, the logP is reported as 1.52.
For `Brc1ccc(NC2=NCCN2)cc1`, the logP was 1.75.
For `Cc1cccc(Cl)c1NC1=NCCN1`, the logP was 1.41.
With `Cc1cccc(C)c1NC1=NCCN1` the logP was 1.45.
For `Cc1ccc(NC2=NCCN2)c(Cl)c1`, the logP was 1.87.
Work on `COc1ccc(OC)c(NC2=NCCN2)c1` yielded a logP of 0.97.
`CC(C)c1cccc(C(C)C)c1NC1=NCCN1` gave a logP of 3.04.
`Clc1ccc(NC2=NCCN2)c(Cl)c1` gave a logP of 1.96.
In the case of `Fc1cccc(F)c1N=C1NCCN1`, the logP is reported as 1.06.
`Brc1cccc(Br)c1NC1=NCCN1` showed a logP of 1.73.
With `COc1cc(C)ccc1NC1=NCCN1` the logP was 1.64.
